Laboratory results as given in ChEMBL document CHEMBL6092212, “Discovery of novel substituted (Z)-N'-hydroxy-3-(3-phenylureido)benzimidamide derivatives as multifunctional molecules targeting pathological hallmarks of Alzheimer's disease” (Eur J Med Chem, 2024).
The source made the active and inactive calls. The calls are words filed in the database; no cut-off is given here.

Key:
Acetylcholinesterase [1] = target: T1, Acetylcholinesterase (Homo sapiens, UniProt P22303); experiment: Inhibition of AChE (unknown origin)
Cholinesterase [2] = target: T2, Cholinesterase (Homo sapiens, UniProt P06276); experiment: Inhibition of BChE (unknown origin)
Mus musculus [3] = experiment: Reversal of scopolamine-induced cognitive deficit Swiss albino mouse model assessed as increase in number of entries in target quadrant at 10 mg/kg, ip measured after 5 days by Morris water maze test; format: functional, organism-based; details: time 5.0 day
Mus musculus [4] = experiment: Reversal of scopolamine-induced cognitive deficit Swiss albino mouse model assessed as increase in time in platform quadrant at 10 mg/kg, ip measured after 5 days by Morris water maze test; format: functional, organism-based; details: time 5.0 day
Mus musculus [5] = experiment: Neuroprotective activity against scopolamine-induced cognitive deficit Swiss albino mouse model assessed as increase in GAP43 mRNA level at 10 mg/kg, ip measured after 14 days by RT-PCR analysis; format: functional, organism-based; details: time 14.0 day
HMC3 [6] = experiment: Inhibition of ROS production in LPS/ATP-induced human HMC3 cells at 12.5 uM incubated for 24 hrs by MitoSOX Red FM staining based analysis; format: functional, cell-based
Mus musculus [7] = experiment: Neuroprotective activity against scopolamine-induced cognitive deficit Swiss albino mouse model assessed as increase in BDNF mRNA level at 10 mg/kg, ip measured after 14 days by RT-PCR analysis; format: functional, organism-based; details: time 14.0 day
HMC3 [8] = experiment: Antiinflammatory activity against LPS/ATP-induced human HMC3 cells assessed as reduction in NF-kappaB level at 12.5 uM by immunocytochemistry based analysis; format: functional, cell-based
HMC3 [9] = experiment: Antiinflammatory activity against LPS/ATP-induced human HMC3 cells assessed as reduction in IL-18 level at 12.5 uM by Western blot analysis; format: functional, cell-based
HMC3 [10] = experiment: Antiinflammatory activity against LPS/ATP-induced human HMC3 cells assessed as reduction in NLRP3 level at 12.5 uM by immunocytochemistry based analysis; format: functional, cell-based
[11] = Acute toxicity in Swiss albino mouse assessed as signs of tremor at 2000 mg/kg, po measured 14 days post-administration; format: organism-based; details: in vivo, 336 h, time 14 day
HMC3 [12] = experiment: Inhibition of mitochondrial impairment in LPS/ATP-induced human HMC3 cells at 12.5 uM incubated for 24 hrs by Rhodamine 123/JC-1 staining based analysis; format: functional, cell-based
[13] = Acute toxicity in Swiss albino mouse assessed as signs of convulsion at 2000 mg/kg, po measured 14 days post-administration; format: organism-based; details: in vivo, 336 h, time 14 day
Mus musculus [14] = experiment: Neuroprotective activity against scopolamine-induced cognitive deficit Swiss albino mouse model assessed as increase in c-FOS mRNA level at 10 mg/kg, ip measured after 14 days by RT-PCR analysis; format: functional, organism-based; details: time 14.0 day
Acetylcholinesterase [15] = target: T1, Acetylcholinesterase; experiment: Inhibition of human AChE using ATCI as substrate preincubated for 30 mins followed by substrate addition measured after 30 mins by Ellman's method
Mus musculus [16] = experiment: Neuroprotective activity against scopolamine-induced cognitive deficit Swiss albino mouse model assessed as increase in CREB1 mRNA level at 10 mg/kg, ip measured after 14 days by RT-PCR analysis; format: functional, organism-based; details: time 14.0 day
HMC3 [17] = experiment: Antiinflammatory activity against LPS/ATP-induced human HMC3 cells assessed as reduction in NLRP3 level at 12.5 uM by Western blot analysis; format: functional, cell-based
[18] = Metal chelating activity assessed as compound-Fe3+ complex formation at 600 uM incubated for 24 hrs by UV spectrophotometry
[19] = Induction of NO release upto 100 uM incubated for 5 to 10 mins by Griess assay; format: functional; details: time 5-10 min
HMC3 [20] = experiment: Antiinflammatory activity against LPS/ATP-induced human HMC3 cells assessed as increase in vimentin level at 12.5 uM by immunocytochemistry based analysis; format: functional, cell-based
[21] = Permeability of compound in PBS at pH 7.4 at 500 uM by PAMPA; format: ADME; details: read-out: permeability
Acetylcholinesterase [22] = target: T1, Acetylcholinesterase; experiment: Mixed inhibition of human AChE using ATCI as substrate at 0.1 to 5 uM preincubated for 30 mins followed by substrate addition by Ellman's method; details: dose 0.1-5 µM
HMC3 [23] = experiment: Antiinflammatory activity against LPS/ATP-induced human HMC3 cells assessed as reduction in caspase-1 level at 12.5 uM by Western blot analysis; format: functional, cell-based
PC-12 = experiment: Cytotoxicity against rat PC-12 cells upto 20 uM incubated for 24 hrs by MTT assay; format: toxicity, cell-based; details: pc-12, 24 h
[24] = target: Amyloid-beta precursor protein (Homo sapiens) (UniProt P05067); experiment: Inhibition of self-mediated Amyloid beta (1 to 42)(unknown origin) aggregation at 3.125 uM incubated for 3 days by ThT assay; details: time 3.0 day
[25] = Acute toxicity in Swiss albino mouse assessed as signs of abnormal behaviour at 2000 mg/kg, po measured 14 days post-administration; format: organism-based; details: in vivo, 336 h, time 14 day
Mus musculus [26] = experiment: Reversal of scopolamine-induced cognitive deficit Swiss albino mouse model assessed as reduction in distance traveled to reach platform at 10 mg/kg, ip measured after 5 days by Morris water maze test; format: functional, organism-based; details: time 5.0 day
Mus musculus [27] = experiment: Neuroprotective activity against scopolamine-induced cognitive deficit Swiss albino mouse model assessed as increase in PKA mRNA level at 10 mg/kg, ip measured after 14 days by RT-PCR analysis; format: functional, organism-based; details: time 14.0 day
[28] = Antioxidant activity assessed as inhibition of DPPH radical scavenging activity incubated for 30 mins by absorbance based analysis; format: functional
[29] = Acute toxicity in Swiss albino mouse assessed as signs of diarrhea at 2000 mg/kg, po measured 14 days post-administration; format: organism-based; details: in vivo, 336 h, time 14 day
HMC3 [30] = experiment: Induction of mitochondrial membrane potential stability in LPS/ATP-induced human HMC3 cells at 12.5 uM incubated for 24 hrs by Rhodamine 123/JC-1 staining based analysis; format: functional, cell-based
[31] = target: Microtubule-associated protein tau (Homo sapiens) (UniProt P10636); experiment: Inhibition of Tau (unknown origin) aggregation at 1.125 uM incubated for 3 days by ThT assay; details: time 3.0 day
Mus musculus [32] = experiment: Neuroprotective activity against scopolamine-induced cognitive deficit Swiss albino mouse model assessed as increase in Nr4a2 mRNA level at 10 mg/kg, ip measured after 14 days by RT-PCR analysis; format: functional, organism-based; details: time 14.0 day
[33] = target: Cholinesterase (Equus caballus) (UniProt P81908); experiment: Competitive inhibition of equine BChE using BTCI as substrate at 1 to 10 uM preincubated for 30 mins followed by substrate addition by Ellman's method; details: dose 1-10 µM
Mus musculus [34] = experiment: Reversal of scopolamine-induced cognitive deficit Swiss albino mouse model assessed as decrease in escape latency at 10 mg/kg, ip measured for 5 days by Morris water maze test; format: functional, organism-based; details: time 5.0 day
HMC3 [35] = experiment: Antiinflammatory activity against LPS/ATP-induced human HMC3 cells assessed as decrease in Iba-1 level at 12.5 uM by Western blot analysis; format: functional, cell-based
[36] = Acute toxicity in Swiss albino mouse assessed as animal survival at 2000 mg/kg, po measured 14 days post-administration; format: organism-based; details: in vivo, 336 h, time 14 day
Mus musculus [37] = experiment: Protection against scopolamine-associated dementia in Swiss albino mouse model assessed as increase in latency period at 10 mg/kg, ip measured after 14 days by Passive avoidance task method; format: functional, organism-based; details: time 14.0 day
HMC3 [38] = experiment: Antiinflammatory activity against LPS/ATP-induced human HMC3 cells assessed as increase in Nrf2 level at 12.5 uM by Western blot analysis; format: functional, cell-based
Mus musculus [39] = experiment: Neuroprotective activity against scopolamine-induced cognitive deficit Swiss albino mouse model assessed as increase in PSD95 mRNA level at 10 mg/kg, ip measured after 14 days by RT-PCR analysis; format: functional, organism-based; details: time 14.0 day
[40] = Antioxidant activity assessed as DPPH radical scavenging activity at 20 to 200 uM incubated for 30 mins by absorbance based analysis relative to control; format: functional; details: dose 20-200 µM
Mus musculus [41] = experiment: Neuroprotective activity against scopolamine-induced cognitive deficit Swiss albino mouse model assessed as increase in TRKB mRNA level at 10 mg/kg, ip measured after 14 days by RT-PCR analysis; format: functional, organism-based; details: time 14.0 day
HMC3 [42] = experiment: Antiinflammatory activity against LPS/ATP-induced human HMC3 cells assessed as reduction in nuclear translocation of NF-kappaB at 12.5 uM by immunocytochemistry based analysis; format: functional, cell-based
Cholinesterase [43] = target: T2, Cholinesterase; experiment: Inhibition of human BChE using BTCI as substrate preincubated for 30 mins followed by substrate addition measured after 30 mins by Ellman's method
HMC3 [44] = experiment: Antiinflammatory activity against LPS/ATP-induced human HMC3 cells assessed as reduction in IL-1beta level at 12.5 uM by Western blot analysis; format: functional, cell-based
HMC3 [45] = experiment: Inhibition of LPS/ATP-induced cytotoxicity against human HMC3 cells at 12.5 uM incubated for 24 hrs by MTT assay; format: functional, cell-based
[46] = Acute toxicity in Swiss albino mouse assessed as signs of over-weight gain at 2000 mg/kg, po measured 14 days post-administration; format: organism-based; details: in vivo, 336 h, time 14 day
Cholinesterase [47] = target: Cholinesterase (Equus caballus, UniProt P81908); experiment: Inhibition of equine BChE using BTCI as substrate preincubated for 30 mins followed by substrate addition measured after 30 mins by Ellman's method
Cholinesterase (Equus caballus, UniProt P81908), sequence (P81908 whole entry): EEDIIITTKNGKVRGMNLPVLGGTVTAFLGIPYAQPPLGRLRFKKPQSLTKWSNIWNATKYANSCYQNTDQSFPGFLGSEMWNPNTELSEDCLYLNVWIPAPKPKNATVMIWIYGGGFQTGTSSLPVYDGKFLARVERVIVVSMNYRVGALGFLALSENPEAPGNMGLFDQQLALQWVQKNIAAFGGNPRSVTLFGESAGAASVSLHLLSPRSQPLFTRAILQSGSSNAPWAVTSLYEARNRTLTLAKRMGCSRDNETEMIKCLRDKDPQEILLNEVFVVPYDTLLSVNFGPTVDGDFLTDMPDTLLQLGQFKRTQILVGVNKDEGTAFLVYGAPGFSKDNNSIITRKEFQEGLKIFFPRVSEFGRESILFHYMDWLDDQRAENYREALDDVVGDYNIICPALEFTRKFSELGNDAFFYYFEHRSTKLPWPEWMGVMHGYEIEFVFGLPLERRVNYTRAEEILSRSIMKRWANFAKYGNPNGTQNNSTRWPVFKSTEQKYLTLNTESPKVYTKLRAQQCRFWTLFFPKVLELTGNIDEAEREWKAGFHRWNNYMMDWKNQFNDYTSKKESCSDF

T1 sequence (P22303 whole entry): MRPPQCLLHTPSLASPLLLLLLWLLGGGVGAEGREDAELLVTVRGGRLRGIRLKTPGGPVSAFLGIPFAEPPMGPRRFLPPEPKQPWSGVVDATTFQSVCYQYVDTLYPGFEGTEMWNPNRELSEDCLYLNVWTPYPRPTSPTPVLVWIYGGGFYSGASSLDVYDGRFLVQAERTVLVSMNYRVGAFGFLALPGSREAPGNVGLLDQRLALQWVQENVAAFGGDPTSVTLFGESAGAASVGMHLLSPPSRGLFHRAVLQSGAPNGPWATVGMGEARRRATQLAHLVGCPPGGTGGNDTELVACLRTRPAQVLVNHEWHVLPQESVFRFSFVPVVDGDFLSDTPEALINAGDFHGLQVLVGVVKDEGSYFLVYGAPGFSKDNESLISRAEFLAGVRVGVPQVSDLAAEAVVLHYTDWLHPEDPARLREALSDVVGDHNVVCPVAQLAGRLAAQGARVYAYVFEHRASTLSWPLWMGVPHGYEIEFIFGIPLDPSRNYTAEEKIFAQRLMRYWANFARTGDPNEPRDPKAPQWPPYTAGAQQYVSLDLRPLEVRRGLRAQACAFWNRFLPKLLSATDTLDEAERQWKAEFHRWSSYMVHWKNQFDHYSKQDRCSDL
T2 sequence (P06276 whole entry): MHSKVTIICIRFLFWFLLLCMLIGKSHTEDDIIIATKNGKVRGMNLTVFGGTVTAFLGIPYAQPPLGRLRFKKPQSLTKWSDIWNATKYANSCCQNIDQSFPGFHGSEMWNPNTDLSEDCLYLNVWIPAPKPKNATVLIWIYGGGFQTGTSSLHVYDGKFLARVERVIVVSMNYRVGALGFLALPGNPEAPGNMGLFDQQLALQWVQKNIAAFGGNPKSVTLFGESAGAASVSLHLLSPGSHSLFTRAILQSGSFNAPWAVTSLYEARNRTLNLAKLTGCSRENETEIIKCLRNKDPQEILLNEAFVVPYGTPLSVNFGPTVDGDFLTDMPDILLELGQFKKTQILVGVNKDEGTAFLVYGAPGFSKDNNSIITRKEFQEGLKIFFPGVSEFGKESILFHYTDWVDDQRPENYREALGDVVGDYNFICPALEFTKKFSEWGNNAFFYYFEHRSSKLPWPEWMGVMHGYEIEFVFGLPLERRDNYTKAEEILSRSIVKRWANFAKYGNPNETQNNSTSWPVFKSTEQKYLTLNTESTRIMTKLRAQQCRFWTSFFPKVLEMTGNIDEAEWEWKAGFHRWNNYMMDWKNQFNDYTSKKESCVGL
Cholinesterase (Equus caballus), sequence (P81908 whole entry): as the sequence (P81908 whole entry) above
Microtubule-associated protein tau (Homo sapiens), sequence (P10636 whole entry): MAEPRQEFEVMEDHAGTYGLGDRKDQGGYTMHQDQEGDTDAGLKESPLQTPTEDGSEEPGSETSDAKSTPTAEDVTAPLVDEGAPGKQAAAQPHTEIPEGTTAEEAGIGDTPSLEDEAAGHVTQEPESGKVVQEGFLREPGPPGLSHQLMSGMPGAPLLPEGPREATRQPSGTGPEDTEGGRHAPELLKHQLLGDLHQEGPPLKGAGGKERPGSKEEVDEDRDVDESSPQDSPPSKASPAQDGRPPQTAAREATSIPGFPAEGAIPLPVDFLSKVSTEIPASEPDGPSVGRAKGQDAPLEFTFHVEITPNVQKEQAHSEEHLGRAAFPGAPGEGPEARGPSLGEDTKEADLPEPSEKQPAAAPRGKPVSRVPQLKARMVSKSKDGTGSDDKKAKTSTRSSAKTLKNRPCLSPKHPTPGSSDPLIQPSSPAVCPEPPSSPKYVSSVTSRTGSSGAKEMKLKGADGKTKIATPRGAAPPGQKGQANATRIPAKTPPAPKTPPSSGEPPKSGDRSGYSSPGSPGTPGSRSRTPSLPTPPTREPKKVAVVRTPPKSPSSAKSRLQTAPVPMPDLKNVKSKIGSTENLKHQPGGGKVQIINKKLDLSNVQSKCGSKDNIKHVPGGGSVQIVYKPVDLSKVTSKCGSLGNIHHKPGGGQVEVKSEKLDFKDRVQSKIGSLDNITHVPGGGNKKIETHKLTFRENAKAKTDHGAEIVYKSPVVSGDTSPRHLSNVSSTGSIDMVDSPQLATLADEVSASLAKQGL
Amyloid-beta precursor protein (Homo sapiens), sequence (P05067 whole entry): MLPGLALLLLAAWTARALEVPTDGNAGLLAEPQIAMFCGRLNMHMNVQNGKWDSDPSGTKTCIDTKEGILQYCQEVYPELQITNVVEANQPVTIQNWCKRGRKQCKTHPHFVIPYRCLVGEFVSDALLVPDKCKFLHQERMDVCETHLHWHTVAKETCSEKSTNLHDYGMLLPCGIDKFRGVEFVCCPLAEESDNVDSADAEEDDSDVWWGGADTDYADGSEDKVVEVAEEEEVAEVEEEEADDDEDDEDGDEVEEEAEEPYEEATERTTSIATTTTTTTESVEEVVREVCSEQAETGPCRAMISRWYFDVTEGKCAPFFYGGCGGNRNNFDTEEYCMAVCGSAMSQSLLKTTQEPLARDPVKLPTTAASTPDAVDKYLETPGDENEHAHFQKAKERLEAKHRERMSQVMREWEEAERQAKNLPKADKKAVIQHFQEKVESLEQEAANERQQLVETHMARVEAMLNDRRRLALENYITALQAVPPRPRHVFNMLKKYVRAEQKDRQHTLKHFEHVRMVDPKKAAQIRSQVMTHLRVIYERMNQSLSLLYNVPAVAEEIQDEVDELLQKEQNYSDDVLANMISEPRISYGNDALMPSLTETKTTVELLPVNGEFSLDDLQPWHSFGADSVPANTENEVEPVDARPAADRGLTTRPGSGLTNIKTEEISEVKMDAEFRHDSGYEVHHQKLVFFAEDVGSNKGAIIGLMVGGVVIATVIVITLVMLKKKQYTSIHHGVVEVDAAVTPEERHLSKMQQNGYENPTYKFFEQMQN

In the case of `COc1cc(/C=C/C(=O)NCC(=O)NCCc2c[nH]c3ccccc23)ccc1O`, the IC50 (Acetylcholinesterase [1]) is reported as 960 nM and the IC50 (Cholinesterase [2]) is reported as 1230 nM.

In the case of `COc1ccc2[nH]cc(CCNC(=O)Nc3cccc(/C(N)=N/O)c3)c2c1`, the Activity (Mus musculus [3]) is reported as “Active”, the Activity (Mus musculus [4]) is reported as “Active” and the Activity (Mus musculus [5]) is reported as “Active”. The inhibition (HMC3 [6]) was “Active”, the Activity (Mus musculus [7]) was “Active” and the Activity (HMC3 [8]) was “Active”. The Activity (HMC3 [9]) was “Active”, the Activity (HMC3 [10]) was “Active” and the Activity [11] was “Non-toxic”. The inhibition (HMC3 [12]) was “Active”, the Activity [13] was “Non-toxic” and the Activity (Mus musculus [14]) was “Active”. The IC50 (Acetylcholinesterase [15]) was 910 nM, the Activity (Mus musculus [16]) was “Active” and the Activity (HMC3 [17]) was “Active”. For the same compound, the Activity [18] was “inactive”, the Activity [19] was “inactive” and the Activity (HMC3 [20]) was “Active”. For the same compound, the Papp at 500 µM [21] was 12.3 ×10⁻⁶ cm/s, the inhibition (Acetylcholinesterase [22]) was “Active” and the Activity (HMC3 [23]) was “Active”. The Activity (PC-12) was “Non-toxic”, the inhibition [24] was “Active” and the Activity [25] was “Non-toxic”. The Activity (Mus musculus [26]) was “Active”, the Activity (Mus musculus [27]) was “Active” and the IC50 [28] was 15200 nM. The Activity [29] was “Non-toxic”, the Activity (HMC3 [30]) was “Active” and the inhibition [31] was “Active”. The Activity (Mus musculus [32]) was “Active”, the inhibition [33] was “Active” and the Activity (Mus musculus [34]) was “Active”. For the same compound, the Activity (HMC3 [35]) was “Active”, the Activity [36] was “Non-toxic” and the Activity (Mus musculus [37]) was “Active”. For the same compound, the Activity (HMC3 [38]) was “Active”, the Activity (Mus musculus [39]) was “Active” and the Activity [40] was 47.3%. For the same compound, the Activity (Mus musculus [41]) was “Active”, the Activity (HMC3 [42]) was “Active” and the IC50 (Cholinesterase [43]) was 1010 nM. For the same compound, the Activity (HMC3 [44]) was “Active”, the inhibition (HMC3 [45]) was “Active” and the Activity [46] was “Non-toxic”. It also gave an IC50 (Cholinesterase [47]) of 1190 nM.
